In patent publication US20230233541A1, “SUBSTITUTED BENZAMIDES AS MODULATORS OF TREX1” (Constellation Pharmaceuticals, Inc., priority 2020, published 2023):
pEC50: −log10 of the molar value.

What was measured:
full length human TREX1 = molecular target: T1, full length human TREX1 (Homo sapiens, UniProt Q9NSU2); assay: TREX1 Biochemical Assay (fluorescence assay, degradation of dsDNA substrate); conditions: 150 pM TREX1, 60 nM dsDNA substrate, 25 minutes at room temperature; read-out: hTREX1 EC50
T1 construct: N-terminally His-Tev tagged full length human TREX1; His-Tev (His tag with TEV protease site) (N); made in house; host or cells: E. coli
T1 sequence (Q9NSU2 1-314): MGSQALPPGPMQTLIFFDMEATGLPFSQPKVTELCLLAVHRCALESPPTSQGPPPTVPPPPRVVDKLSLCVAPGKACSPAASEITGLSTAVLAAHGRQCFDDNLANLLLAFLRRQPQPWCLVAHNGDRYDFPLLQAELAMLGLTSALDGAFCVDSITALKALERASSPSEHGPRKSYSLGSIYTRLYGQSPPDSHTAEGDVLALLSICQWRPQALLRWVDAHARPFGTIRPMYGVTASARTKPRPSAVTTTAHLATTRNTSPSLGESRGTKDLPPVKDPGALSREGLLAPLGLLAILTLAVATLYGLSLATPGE
Protocol: Degradation of the dsDNA liberates free fluorophore to produce a fluorescent signal. Specifically, 7.5 μL of N-terminally His-Tev tagged full length human TREX1 (expressed in E. coli and purified in house) in reaction buffer (50 mM Tris (pH 7.4), 150 mM NaCl, 2 mM DTT, 0.1 mg/mL BSA, 0.01% (v/v) Tween-20 and 100 mM MgCl2) was added to a 384-well Black ProxiPlate Plus (Perkin Elmer) which already contained compound (150 nL) at varying concentrations as a 10-point dose-response in DMSO. To this was added 7.5 μL of dsDNA substrate (Strand A: 5′ TEX615/GCT AGG CAG 3′; Strand B: 5′ CTG CCT AGC/IAbRQSp (Integrated DNA Technologies)) in reaction buffer. Final concentrations were 150 pM TREX1, 60 nM dsDNA substrate in reaction buffer with 1.0% DMSO (v/v). After 25 minutes at room temperature, reactions were quenched by the addition of 5 μL of stop buffer (same as reaction buffer plus 200 mM EDTA). Final concentrations in the quenched reaction were 112.5 pM TREX1, 45 nM DNA and 50 mM EDTA in a volume of 20 μL. After a 5-minute incubation at room temperature, plates were read in a laser sourced Envision (Perkin-Elmer), measuring fluorescence at 615 nm following excitation w/570 nm light. IC50 values were calculated by comparing the measured fluorescence at 615 nm ratio relative to control wells pre-quenched w/stop buffer (100% inhibition) and no inhibitor (0% inhibition) controls as using non-linear least square four parameter fits and either Genedata or GraphPad Prism (GraphPad Software, Inc.).

[1] = molecular target: T2, human TREX2 (residues M44-A279) (Homo sapiens, UniProt Q9BQ50); assay: TREX2 Biochemical Assay (fluorescence assay, degradation of dsDNA substrate); conditions: 2.5 nM TREX2, 60 nM dsDNA substrate, 25 minutes at room temperature; read-out: hTREX2 EC50
T2 construct: human TREX2 (residues M44-A279, expressed in E. coli); His-Tev (His tag with TEV protease site) (N); made in house; host or cells: E. coli
T2 sequence (Q9BQ50 44-279 isoform Q9BQ50-1): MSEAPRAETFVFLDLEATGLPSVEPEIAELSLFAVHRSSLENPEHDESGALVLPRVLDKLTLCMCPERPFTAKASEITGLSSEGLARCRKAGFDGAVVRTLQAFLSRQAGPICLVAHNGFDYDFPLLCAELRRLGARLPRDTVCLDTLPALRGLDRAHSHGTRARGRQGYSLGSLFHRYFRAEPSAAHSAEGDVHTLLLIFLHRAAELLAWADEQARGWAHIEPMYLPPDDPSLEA
Protocol: Degradation of the dsDNA liberates free fluorophore to produce a fluorescent signal. Specifically, 7.5 μL of N-terminally His-Tev tagged human TREX2 (residues M44-A279, expressed in E. coli and purified in house) in reaction buffer (50 mM Tris (pH 7.4), 150 mM NaCl, 2 mM DTT, 0.1 mg/mL BSA, 0.01% (v/v) Tween-20 and 100 mM MgCl2) was added to a 384-well Black ProxiPlate Plus (Perkin Elmer) which already contained compound (150 nL) at varying concentrations as a 10-point dose-response in DMSO. To this was added 7.5 μL of dsDNA substrate (Strand A: 5′ TEX615/GCT AGG CAG 3′; Strand B: 5′ CTG CCT AGC/IAbRQSp (IDT)) in reaction buffer. Final concentrations were 2.5 nM TREX2, 60 nM dsDNA substrate in reaction buffer with 1.0% DMSO (v/v). After 25 minutes at room temperature, reactions were quenched by the addition of 5 μL of stop buffer (same as reaction buffer plus 200 mM EDTA). Final concentrations in the quenched reaction mixture were […] TREX2, 45 nM DNA and 50 mM EDTA in a volume of 20 μL. After a 5-minute incubation at room temperature, plates were read in a laser sourced Envision (Perkin-Elmer), measuring fluorescence at 615 nm following excitation w/570 nm light. IC50 values were calculated by comparing the measured fluorescence at 615 nm ratio relative to control wells pre-quenched w/stop buffer (100% inhibition) and no inhibitor (0% inhibition) controls as using non-linear least square four parameter fits and either Genedata or GraphPad Prism (GraphPad Software, Inc.).

| Structure (SMILES) | pEC50 (full length human TREX1) | pEC50 [1] |
| --- | --- | --- |
| O=C(Cc1ccccc1)N(Cc1cccnc1)Cc1ccc(Cl)cc1Cl [Compound 94] | < 5.00 | < 4.00 |
| CC(C)c1ccc(C(=O)N(Cc2cccnc2)Cc2cc(Cl)cc(Cl)c2)cc1 [Compound 51] | < 5.00 | < 4.00 |
| O=C(c1ccc(CO)cc1)N(Cc1cccnc1)Cc1ccc(Cl)cc1Cl [Compound 83] | < 5.00 | < 4.00 |
| O=C(c1ccccc1N1CCCCC1)N(Cc1cccnc1)Cc1cc(Cl)cc(Cl)c1 [Compound 46] | < 5.00 | < 4.00 |
| O=C(c1cccc(F)c1)N(Cc1ccccc1)Cc1ccc(Cl)cc1Cl [Compound 96] | < 5.00 | < 4.00 |
| Cc1nocc1C(=O)N(Cc1cccnc1)Cc1ccc(Cl)cc1Cl [Compound 140] | < 5.00 | < 4.00 |
| Cc1cc(C(=O)N(Cc2cccnc2)Cc2cc(Cl)cc(Cl)c2)ccc1Br [Compound 78] | < 5.00 | < 4.00 |
| O=C(C1CCC(O)CC1)N(Cc1cccnc1)Cc1ccc(Cl)cc1Cl (centres unmarked) [Compound 86] | < 5.00 | < 4.00 |
| O=C(c1cccc(-c2ccccc2)c1)N(Cc1cccnc1)Cc1ccc(Cl)cc1Cl [Compound 43] | < 5.00 | < 4.00 |
| O=C(c1ccc(F)cc1)N(Cc1cccnc1)Cc1ccc(Cl)cc1Cl [Compound 98] | < 5.00 | < 4.00 |
| O=C1NCc2cc(CN(Cc3ccccc3Cl)C(=O)c3cc(F)cc(F)c3)cnc21 [Compound 182] | 5.00 to 6.00 | 4.00 to 5.00 |
| COc1cc(C(=O)N(Cc2cccnc2)Cc2ccc(Cl)cc2Cl)ccc1F [Compound 80] | < 5.00 | < 4.00 |
| N#Cc1ccc(C(=O)N(Cc2cccnc2)Cc2ccc(Cl)cc2Cl)cc1 [Compound 103] | < 5.00 | < 4.00 |
| COc1cccc(CN(Cc2cccnc2)C(=O)c2cccc(F)c2)c1Cl [Compound 127] | 5.00 to 6.00 | < 4.00 |
| O=C(c1cccc(F)c1)N(Cc1cnccn1)Cc1ccc(Cl)cc1Cl [Compound 111] | 5.00 to 6.00 | < 4.00 |
| O=C(c1ccc(F)c(Br)c1)N(Cc1cccnc1)Cc1ccc(Cl)cc1Cl [Compound 12] | 5.00 to 6.00 | < 4.00 |
| O=C(c1ccc(Oc2ccc(F)cc2)cc1)N(Cc1cccnc1)Cc1cc(Cl)cc(Cl)c1 [Compound 74] | < 5.00 | < 4.00 |
| NC(=O)c1ccc(CN(Cc2cccc(Cl)c2Cl)C(=O)c2cccc(F)c2)cn1 [Compound 149] | < 5.00 | < 4.00 |
| O=C(c1cccc(Br)c1)N(Cc1cccnc1)Cc1cc(Cl)cc(Cl)c1 [Compound 30] | < 5.00 | < 4.00 |
| CC(=O)Nc1ccc(CN(Cc2cccc(Cl)c2Cl)C(=O)c2cccc(F)c2)cn1 [Compound 214] | 5.00 to 6.00 | < 4.00 |
| O=C(O)c1ccc(CN(Cc2ccccc2OC(F)(F)F)C(=O)c2cc(F)cc(F)c2)cn1 [Compound 199] | 5.00 to 6.00 | 4.00 to 5.00 |
| NCC[C@@H](c1cccc(Cl)c1Cl)N(Cc1cccnc1)C(=O)c1cc(F)cc(F)c1 [Compound 237] | < 5.00 | 4.00 to 5.00 |
| O=C(c1ccc(-c2ccccc2)cc1)N(Cc1cccnc1)Cc1ccc(Cl)cc1Cl [Compound 24] | < 5.00 | < 4.00 |
| CCC(=O)N(Cc1cccnc1)Cc1ccc(Cl)cc1Cl [Compound 88] | < 5.00 | < 4.00 |
| O=C(c1ccc(Cl)cc1Br)N(Cc1cccnc1)Cc1cc(Cl)cc(Cl)c1 [Compound 63] | < 5.00 | < 4.00 |
| COCC(=O)N(Cc1cccnc1)Cc1ccc(Cl)cc1Cl [Compound 92] | < 5.00 | < 4.00 |
| O=C(c1ccc(Oc2ccc(Br)cc2)cc1)N(Cc1cccnc1)Cc1cc(Cl)cc(Cl)c1 [Compound 77] | < 5.00 | < 4.00 |
| Cc1ccc(C(=O)N(Cc2cccnc2)Cc2cc(Cl)cc(Cl)c2)c(Br)c1 [Compound 76] | < 5.00 | < 4.00 |

Continued, values first:

| pEC50 (full length human TREX1) | pEC50 [1] | Structure (SMILES) |
| --- | --- | --- |
| > 7.00 | 5.00 to 6.00 | CC[C@@H](c1ccc2c(c1Cl)OCO2)N(Cc1ccc(C(=O)O)nc1)C(=O)c1cc(F)cc(F)c1 [Compound 230] |
| 6.00 to 7.00 | 4.00 to 5.00 | O=C(O)c1ccc(CN(Cc2ccc(Cl)cc2Cl)C(=O)c2cccc(F)c2)cn1 [Compound 142, 5-({N-[(2,4-dichlorophenyl)methyl]-1-(3-fluorophenyl)formamido}methyl)pyridine-2-carboxylic acid] |
| > 7.00 | 5.00 to 6.00 | O=C(O)c1ccc(CN(Cc2nccc(Cl)c2Cl)C(=O)c2cc(F)cc(F)c2)cn1 [Compound 203] |
| > 7.00 | 4.00 to 5.00 | CC[C@@H](c1cccc(Cl)c1OC)N(Cc1cnc(C(=O)O)c(N)c1)C(=O)c1cc(F)cc(F)c1 [Compound 250] |
| 6.00 to 7.00 | 5.00 to 6.00 | O=C(c1cc(F)cc(F)c1)N(Cc1ccc(-c2noc(=O)[nH]2)nc1)Cc1cccc(Cl)c1Cl [Compound 262] |
| 6.00 to 7.00 | 4.00 to 5.00 | O=C(c1cc(F)cc(F)c1)N(Cc1cccnc1)[C@@H](CCO)c1ccc(Cl)cc1Cl [Compound 261] |
| 6.00 to 7.00 | 5.00 to 6.00 | O=C(c1cc(F)cc(F)c1)N(Cc1cccnc1CO)Cc1cccc(Cl)c1Cl [Compound 180] |
| 6.00 to 7.00 | 4.00 to 5.00 | O=C(O)c1ncc(CN(Cc2ccccc2Cl)C(=O)c2cc(F)cc(F)c2)cn1 [Compound 207] |
| > 7.00 | 5.00 to 6.00 | CC[C@H](c1ccc2c(c1Cl)OCO2)N(Cc1ccc(C(=O)O)nc1)C(=O)c1cc(F)cc(F)c1 [Compound 233] |
| 6.00 to 7.00 | 4.00 to 5.00 | O=C(c1cc(F)cc(F)c1)N(Cc1ccc(-c2cc(=O)[nH][nH]2)nc1)Cc1ccccc1Cl [Compound 221] |
| 6.00 to 7.00 | 4.00 to 5.00 | N#CCC[C@@H](c1ccccc1Cl)N(Cc1cccnc1)C(=O)c1cc(F)cc(F)c1 [Compound 177] |
| > 7.00 | 5.00 to 6.00 | CC[C@@H](c1ccc(OC)c(OC)c1Cl)N(Cc1ccc(C(=O)O)nc1)C(=O)c1cc(F)cc(F)c1 [Compound 227] |
| > 7.00 | 5.00 to 6.00 | CCOc1cccc([C@H](CC)N(Cc2ccc(C(=O)O)nc2)C(=O)c2cc(F)cc(F)c2)c1Cl [Compound 229] |
| > 7.00 | > 6.00 | COc1cc(C(=O)O)ncc1CN(Cc1cccc(Cl)c1Cl)C(=O)c1cc(F)cc(F)c1 [Compound 208] |
| > 7.00 | > 6.00 | CC[C@H](c1cccc(Cl)c1Cl)N(Cc1ccc(C(=O)O)nc1)C(=O)c1cc(F)cc(F)c1 [Compound 255] |
